Reference: patent publication US20060035810A1, “Regulation of ins(3456)p4 signalling by a reversible kinase phosphatase and methods and compositions related thereto” (priority 2002, published 2006)

Assays:
[1] = target: T1, Ins(1,3,4,5,6)P5 1-phosphatase activity of Ins(3,4,5,6)P4 kinase (Homo sapiens, UniProt Q13572); assay: Inositol phosphate phosphatase activity assay with ADP (HPLC); type: biochemical; settings: 5 μM Ins(1,3,4,5,6)P5, 5 mM ADP, addition of 1-5 μM Ins(1,3,4)P3
T1 construct: made in house; host or cells: E. coli
T1 sequence (Q13572 1-414): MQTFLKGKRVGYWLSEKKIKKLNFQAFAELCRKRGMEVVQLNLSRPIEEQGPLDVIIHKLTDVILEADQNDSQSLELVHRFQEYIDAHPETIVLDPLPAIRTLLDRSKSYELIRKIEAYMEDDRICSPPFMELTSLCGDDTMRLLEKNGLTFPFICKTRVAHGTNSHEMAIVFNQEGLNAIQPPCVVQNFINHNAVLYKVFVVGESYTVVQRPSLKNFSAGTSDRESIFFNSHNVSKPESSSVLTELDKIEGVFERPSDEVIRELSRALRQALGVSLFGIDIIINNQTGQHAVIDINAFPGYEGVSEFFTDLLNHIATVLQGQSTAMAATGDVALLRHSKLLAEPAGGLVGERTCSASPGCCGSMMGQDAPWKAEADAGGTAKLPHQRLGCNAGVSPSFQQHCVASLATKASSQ
Method: Ins(3,4,5,6)P4 kinase (0.4 μg) was incubated for 30 min in 100 μl phosphatase assay buffer (see Methods) either with (closed circles) or without (open circles) 5 mM ADP plus trace-amounts of either [^3H]Ins(1,3,4,5,6)P5 (panel A) [^3H]Ins(1,3,4,6)P4 (panel B), or [^3H]Ins(1,3,4,5)P4 (panel C). Samples were analyzed by HPLC (see Methods). The elution positions of Ins(1,3,4)P3 and Ins(3,4,5,6)P4 were verified with genuine standards. The elution positions of Ins(1,3,4,6)P4 (106 min, panel B) and of Ins(1,3,4,5)P4 (110 min, panel C) exclude these as products of InsP5 dephosphorylation (panel A).
Additional incubations were performed with 5 μM [^3H]Ins(1,3,4)P3 (approx. 1200 d.p.m.) plus either no Ins(1,3,4,5,6)P5 (open circles) or 5 μM non-radiolabeled Ins(1,3,4,5,6)P5 (closed circles); these reactions were assayed by HPLC (Synchropak Q100 column) and the InsP4 region of the chromatogram is shown in Panel B.
(§1) Inositol phosphate phosphatase activity was assayed in buffer containing 100 mM KCl, 20 mM HEPES pH 7.2, 5 mM ADP, 6 mM MgSO4, 0.3 mg/ml bovine serum albumin. Assays were acid-quenched, neutralized and analyzed by HPLC using a Synchropak Q100 columm (Caffrey et al., “Expanding Coincident Signaling by PTEN through its Inositol 1,3,4,5,6-Pentakisphosphate 3-phosphatase Activity,” FEBS Lett 499: 6-10 (2001)); 1 ml fractions were collected for 70 min., followed by 0.5 ml fractions. Inositol phosphate kinase activity was assayed in buffer containing 100 mM KCl, 20 mM HEPES pH 7.2, 5 mM ATP, 10 mM phosphocreatine, 6 mM MgSO4, 10 μg/ml creatine phosphokinase (Calbiochem), 0.3 mg/ml bovine serum albumin. Some assays were acid-quenched and analyzed by HPLC using a Synchropak Q100 column. Other reactions were heat-inactivated (95° C., 3 min) and analyzed by a metal dye detection, HPLC method (Mayr, “A novel metal-dye detection sysytem permits picomolar-range h.p.l.c. analysis of inositol polyphosphates from non-radioactively labelled cell or tissue specimens,” Biochem J 254: 585-591 (1988); Adelt et al., “Enzyme-assisted total synthesis of the optical antipodes D-myo-inositol 3,4,5-trisphosphate and D-myo-inositol 1,5,6-trisphosphate: aspects of their structure-activity relationship to biologically active inositol phosphates,” J Med Chem 42: 1262-1273 (1999)).

[2] = target: T2, Recombinant human Ins(3,4,5,6)P4 1-kinase (Homo sapiens, UniProt Q13572); assay: Inositol phosphate kinase activity assay (HPLC); type: biochemical; settings: for product of phosphorylation by the kinase: 50 uM substrate, 3.4 ug enzyme, 4 hr, 37° C., 5 mM ATP
T2 construct: made in house; host or cells: E. coli
T2 sequence (Q13572 1-414): T1 sequence (Q13572 1-414)
Method: as §1
Activity of 3.4 ug of inositol 3,4,5,6-tetrakisphosphate 1-kinase was assayed for 4 hr. at 37° C. in 200 μl buffer containing 100 mM KCl, 20 mM HEPES pH 7.2, 5 mM ATP, 10 mM phosphocreatine, 6 mM MgSO4, 10 μg/ml creatine phosphokinase (Calbiochem), 0.3 mg/ml bovine serum albumin and 50 uM of either inositol 3,4,5-trisphosphate, 4,5,6-trisphosphate or inositol 3,5,6-trisphosphate. Reactions were heat-inactivated (95° C., 3 min) and analyzed by a metal dye detection, HPLC method.
[…] (Manassas, Va.) supplied the CFPAC-1 cells and T84 cells. Recombinant human Ins(3,4,5,6)P4 1-kinase was expressed in E. coli and purified (Yang et al., “Multitasking in Signal Transduction by a Promiscuous Human Ins(3,4,5,6)P4 1-Kinase/Ins(1,3,4)P3 5/6-Kinase,” Biochem J 351: 551-555 (2000)). Non-radiolabeled Ins(1,3,4)P3 and Ins(1,3,4,5,6)P5 were purchased from CellSignals Inc (Lexington, Ky.). The details of the synthesis of non-radiolabeled Ins(3,4,5)P3, Ins(3,5,6)P3, Ins(4,5,6)P3 and Ins(3,4,6)P3 (as sodium salts) will be published separately by S.-K. C. Ins(3,4,6)P3 was also prepared by a different synthetic route (Mills et al., “Synthesis of D- and L-myo-inositol 1,4,6-trisphosphate, regioisomers of a ubiquitous second messenger,” J Org Chem 61: 8980-8987 (1996)). [^3H]Ins(1,3,4,5,6)P5 was prepared as previously described (Zhang et al., “The Transcriptional Regulator, Arg82, is a Hybrid Kinase with both Monophosphoinositol- and Diphosphoinositol-Polyphosphate Synthase Activity,” FEBS Lett 494: 208-212 (2001)). [^3H]Ins(1,3,4)P3 was prepared from [^3H]Ins(1,3,4,5)P4 (New England Nuclear) using recombinant Ins(1,4,5)P3/Ins(1,3,4,5)P4 5-phosphatase (Erneux et al., “Production of recombinant human brain type I inositol-1,4,5-trisphosphate 5-phosphatase in Escherichia coli. Lack of phosphorylation by protein kinase C,” Eur J Biochem 234: 598-602 (1995)). [^3H]Ins(1,3,4)P3 was converted to [^3H]Ins(1,3,4,6)P4 using Ins(1,3,4)P3 6-kinase activity (Yang et al., “Multitasking in Signal Transduction by a Promiscuous Human Ins(3,4,5,6)P4 1-Kinase/Ins(1,3,4)P3 5/6-Kinase,” Biochem J 351: 551-555 (2000)). [^3H]Ins(3,4)P2 was prepared by alkaline phosphatase attack on [^3H]Ins(1,3,4)P3 in 20 mM glycine (pH 9.0 with KOH). [^3H]Ins(1,4)P2 was purchased from New England Nuclear.

[3] = system: insulin granules in pancreatic β-cells; assay: Insulin granule acidification, LSG fluorescence with patch-clamp and confocal imaging; type: cell-based, mouse
Method: FIG. 6. Ins(3,4,5,6)P4 inhibits acidification of insulin granules in pancreatic β-cells. FIG. 6A, Representative time-courses for intragranular acidification, monitored by increased fluorescence of LSG before and after establishment of the standard whole-cell configuration (see arrow) and the effect of perfusion of intracellular medium (containing 0.4 μM [Ca^2+]free except where “no calcium” is indicated; see Methods) plus either 0 (“control”), 1 or 10 μM Ins(3,4,5,6)P4. FIG. 6B, Mean (±SE) fluorescence changes (n-5-11), during the 60 s that followed establishment of the standard whole-cell configuration, for cells perfused with inositol phosphates as indicated at the base of the bar graph. Where indicated, DIDS (100 μM) were added to the bath solution 30 min prior to patching the cells. Statistical significance was evaluated by Student's unpaired t-test (* P<0.01).
The inositol phosphates used in this study were all purchased from CellSignals Inc (Lexington, Ky.). Insulin granule pH were monitored by combining the patch-clamp technique with confocal imaging. Pancreatic β-cells, isolated and cultured on glass coverslips for 2-24 h, were voltage clamped at −70 mV, as previously described (B9). LysoSensor-Green™ DND-189 (1 μM; Molecular Probes, Leiden, The Netherlands) was added during the last 30 min of cell culture and was also included in the extracellular buffer (B9) that continuously perfused the experimental chamber. All LSG experiments were performed at 20° C. to prevent exocytosis that otherwise interfered with the optical measurements (15). LSG fluorescence was excited using the 488 nm-line of a Zeiss 510 confocal microscope. The emitted light was collected with a 63×/1.3 NA oil objective and a >505 nm filter. Laser scanning was performed with low pixel resolution (128×128) and with 6 s intervals to minimize photo-bleaching. After gigaseal formation, it was ascertained that LSG fluorescence was stable for at least 30 s before the experiment commenced. The intracellular electrode solution contained: 125 mM K-glutamate, 10 mM KCl, 1 0 mM NaCl, 1 mM MgCl2, 5 mM HEPES, 3 mM Mg-ATP, 0.1 mM cAMP, 10 mM EGTA and 7 mM CaCl2 (˜0.4 μM free [Ca^2+]I; pH 7.2 with KOH). In some experiments, marked “no calcium”, there was no added Ca^2+, and the concentration of EGTA was 50 μM. Whole-cell capacitance measurements (at 33° C.) were made with the cells clamped at −70 mV, and the standard whole-cell configuration was established at t=0. Capacitance recordings were made using an EPC-7 patch-clamp amplifier equipped with the software Pulse (version 8.4 and later) and the X-chart extension (HEKA Elektronik, Lambrecht/Pfalz, Germany) (B9).

[4] = system: calcium-activated Cl− channels; assay: Whole-cell Cl− current in CFPAC-1 cells (bio-assay for Ins(3,4,5,6)P4); type: cell-based, human; settings: 100 μM introduced into CFPAC-1 cells; control 54±3 pA/pF
Method: T84 cells were detached by incubation with 0.25% (w/v) trypsin/0.02% (w/v) EDTA for 5-6 min. After trypsin removal, 200 μl aliquots (1.5×10^6/ml) were seeded into the circular wells (area=0.45 cm^2) of permeable supports, made by gluing (Silastic® sealant, Dow Corning, Midland, Mich.) a Sylgard® ring to filters composed of mixed cellulose esters (Millipore Corp., Bedford, Mass.). Seeded supports were floated on culture medium and incubated for 11-14 days before being mounted in modified Snapwell holders in Using chambers (EasyMount System, Physiologics Instruments, San Diego, Calif.). Transcellular Cl^− flux was then recorded as the short-circuit current as previously described. The resistance of the monolayers were (vector) 346±44 ohms/cm^2 (mean±se, n=12) and (kinase) 354±62 ohms/cm^2 (mean±se, n=12). Whole-cell Cl^− currents in CFPAC—I cells were measured at +40 mV as previously described using an intracellular Ca^2+-BAPTA buffer to clamp free [Ca^2+] to 0.5 μM [8]. One possibility is that Ins(3,4,5,6)P4 originates by phosphorylation of an InsP3 precursor. […] Control whole-cell Cl^− current (54±3 pA/pF, n—17) was reduced to 24±3 pA/pF (n=7) by 10 μM Ins(3,4,5,6)P4.

SMILES	whether the enzyme phosphorylates the inositol phosphate [2]	whole-cell Cl− current [4] [pA/pF]	product of phosphorylation by the kinase [2]	further results
O=P(O)(O)O[C@@H]1[C@H](O)[C@H](O)[C@@H](OP(=O)(O)O)[C@H](OP(=O)(O)O)[C@H]1O [Ins(1,3,4)P3, inositol 1,3,4-trisphosphate]	–	–	–	increase of net accumulation of Ins(3,4,5,6)P4 [1]: up to 5 fold
O=P(O)(O)O[C@H]1[C@H](O)[C@@H](O)[C@H](OP(=O)(O)O)[C@@H](O)[C@H]1O [Ins(1,4)P2]	not phosphorylated	–	–	–
O=P(O)(O)OC1[C@@H](OP(=O)(O)O)[C@@H](O)C(O)[C@H](O)[C@H]1OP(=O)(O)O (stereo partly drawn) [Ins(3,4,5)P3, inositol 3,4,5-trisphosphate]	–	61±7	phosphorylated to inositol 3,4,5,6-tetrakisphosphate	–
O=P(O)(O)O[C@H]1[C@H](O)[C@H](O)[C@H](OP(=O)(O)O)[C@@H](OP(=O)(O)O)[C@@H]1O [Ins(3,4,6)P3, inositol 3,4,6-trisphosphate]	–	68±5	metabolized to Ins(1,3,4,5)P4	Km ([2]; read-out: Km as kinase substrate): 0.2 µM
O=P(O)(O)O[C@@H]1[C@@H](O)[C@H](OP(=O)(O)O)[C@@H](OP(=O)(O)O)[C@H](O)[C@@H]1O [Ins(3,5,6)P3, inositol 3,5,6-trisphosphate]	–	60±6	phosphorylated to inositol 1,3,5,6-tetrakisphosphate	–
O=P(O)(O)OC1C(O)C(O)C(O)C(OP(=O)(O)O)C1OP(=O)(O)O (stereo not drawn) [Ins(4,5,6)P3, inositol 4,5,6-trisphosphate]	–	56±7	phosphorylated to inositol 1,4,5,6-tetrakisphosphate	–
NCCCCCCNS(=O)(=O)c1cccc2c(Cl)cccc12 [W-7]	–	–	–	effect on granule acidification ([3]; treatment of the cells with calmodulin antagonist): without effect

Further lines, with some results ahead:

whether the enzyme phosphorylates the inositol phosphate [2]	SMILES	whole-cell Cl− current [4] [pA/pF]	product of phosphorylation by the kinase [2]	further results
does not phosphorylate	O=P(O)(O)O[C@H]1[C@H](O)[C@@H](OP(=O)(O)O)[C@H](OP(=O)(O)O)[C@@H](OP(=O)(O)O)[C@H]1O [Ins(1,3,4,5)P4]	–	–	–
does not phosphorylate	O=P(O)(O)O[C@H]1[C@H](OP(=O)(O)O)[C@@H](OP(=O)(O)O)[C@@H](O)[C@@H](O)[C@@H]1OP(=O)(O)O [Ins(1,4,5,6)P4, inositol 1,4,5,6-tetrakisphosphate]	–	–	effect on vesicle acidification ([3]; 100 μM): neither 100 μM Ins(1,4,5,6)P4 nor 100 μM Ins(1,3,4,5,6)P5 affected
